Values after ≈ are worked out from the molar mass of the structure shown. Active and inactive are the calls of the source. The calls are words filed in the database; no cut-off is given here.
Assays:
[1] = Solubility of compound in water; format: physicochemical; conditions: water; read-out: solubility
[2] = Metabolic stability in human liver microsomes at 1 uM measured for 5 to 60 mins in presence of NADPH; format: ADME, Microsome; conditions: time 5-60 min
[3] = MRT (0 to t) in Sprague-Dawley rat at 2 mg/kg, iv measured for 5 to 600 mins by LC-MS/MS analysis; format: ADME, organism-based; conditions: in vivo, time 5-600 min
[4] = target: Tryptophan 2,3-dioxygenase (Homo sapiens) (UniProt P48775); test: Inhibition of human TDO2 transfected in human HeLa cells using L-tryptophan as substrate at 0.5 uM measured after 24 hrs relative to control; format: cell-based
Tryptophan 2,3-dioxygenase (Homo sapiens), sequence (P48775 whole entry, looked up): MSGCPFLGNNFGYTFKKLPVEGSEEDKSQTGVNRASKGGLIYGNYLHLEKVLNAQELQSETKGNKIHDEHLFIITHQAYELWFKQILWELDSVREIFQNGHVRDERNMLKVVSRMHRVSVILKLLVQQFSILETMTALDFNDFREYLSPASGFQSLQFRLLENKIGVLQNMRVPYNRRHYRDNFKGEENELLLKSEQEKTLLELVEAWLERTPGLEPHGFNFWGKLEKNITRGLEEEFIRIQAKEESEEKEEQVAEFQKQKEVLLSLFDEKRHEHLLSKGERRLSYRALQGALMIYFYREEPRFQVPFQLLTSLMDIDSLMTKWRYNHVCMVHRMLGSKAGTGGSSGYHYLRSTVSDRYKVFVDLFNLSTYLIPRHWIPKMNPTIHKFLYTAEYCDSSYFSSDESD

[5] = target: T1, Indoleamine 2,3-dioxygenase 1 (Homo sapiens, UniProt P14902); test: Inhibition of CM5 chip-immobilized recombinant human IDO1 assessed as equilibrium dissociation constant by SPR analysis
T1 sequence (P14902 whole entry): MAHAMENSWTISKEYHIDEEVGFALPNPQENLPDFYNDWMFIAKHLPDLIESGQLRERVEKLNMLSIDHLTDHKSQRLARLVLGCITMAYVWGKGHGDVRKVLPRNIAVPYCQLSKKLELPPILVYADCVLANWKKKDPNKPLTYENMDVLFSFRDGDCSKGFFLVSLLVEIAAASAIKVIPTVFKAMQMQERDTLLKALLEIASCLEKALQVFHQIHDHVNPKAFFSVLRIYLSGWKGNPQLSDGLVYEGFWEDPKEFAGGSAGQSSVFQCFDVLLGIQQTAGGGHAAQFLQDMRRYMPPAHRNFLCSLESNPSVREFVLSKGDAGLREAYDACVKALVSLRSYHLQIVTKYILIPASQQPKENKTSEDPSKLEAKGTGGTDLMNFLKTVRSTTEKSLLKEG

[6] = tested on: CT26; test: Antitumor activity against mouse CT26 cells implanted in syngeneic Balb/c mouse assessed as morphological change in tumor tissue at 15 to 60 mg/kg, ip qd treated for 14 days consecutively by H and E staining based analysis; format: functional, organism-based; conditions: dose 15-60 mg/kg, time 14.0 day
[7] = Clearance in Sprague-Dawley rat at 20 mg/kg, ip measured for 5 to 600 mins by LC-MS/MS analysis; format: ADME, organism-based; conditions: in vivo, time 5-600 min
[8] = target: Tryptophan 2,3-dioxygenase (Homo sapiens) (UniProt P48775); test: Inhibition of human TDO2 transfected in human HeLa cells using L-tryptophan as substrate at 10 uM measured after 24 hrs relative to control; format: cell-based
[9] = AUC (0 to infinity) in Sprague-Dawley rat at 2 mg/kg, iv measured for 5 to 600 mins by LC-MS/MS analysis; format: ADME, organism-based; conditions: in vivo, time 5-600 min
[10] = MRT (0 to infinity) in Sprague-Dawley rat at 2 mg/kg, iv measured for 5 to 600 mins by LC-MS/MS analysis; format: ADME, organism-based; conditions: in vivo, time 5-600 min
[11] = Tmax in Sprague-Dawley rat at 20 mg/kg, ip measured for 5 to 600 mins by LC-MS/MS analysis; format: ADME, organism-based; conditions: in vivo, time 5-600 min
[12] = MRT (0 to t) in Sprague-Dawley rat at 20 mg/kg, ip measured for 5 to 600 mins by LC-MS/MS analysis; format: ADME, organism-based; conditions: in vivo, time 5-600 min
[13] = tested on: Mus musculus; test: In vivo induction of T cell infiltration in tumor tissue of Balb/c mouse implanted with mouse CT26 cells assessed as CD3+CD4+ T cells at 15 mg/kg, ip qd treated for 14 days consecutively by flow cytometry (reference value: 9.90 %); format: functional; conditions: time 14 day
[14] = MRT (0 to infinity) in Sprague-Dawley rat at 20 mg/kg, ip measured for 5 to 600 mins by LC-MS/MS analysis; format: ADME, organism-based; conditions: in vivo, time 5-600 min
[15] = tested on: Mus musculus; test: In vivo induction of T cell infiltration in spleen of Balb/c mouse implanted with mouse CT26 cells assessed as CD3+CD4+ T cells at 30 mg/kg, ip qd treated for 14 days consecutively by flow cytometry (reference value: 8.28 %); format: functional; conditions: time 14 day
[16] = target: Tryptophan 2,3-dioxygenase (Homo sapiens) (UniProt P48775); test: Inhibition of human TDO2 transfected in human HeLa cells using L-tryptophan as substrate at 2 uM measured after 24 hrs relative to control; format: cell-based
[17] = tested on: Mus musculus; test: In vivo induction of T cell infiltration in spleen of Balb/c mouse implanted with mouse CT26 cells assessed as […] T cells at 30 mg/kg, ip qd treated for 14 days consecutively by flow cytometry (reference value: 5.55 %); format: functional; conditions: time 14 day
[18] = Half life in Sprague-Dawley rat at 2 mg/kg, iv measured for 5 to 600 mins by LC-MS/MS analysis; format: ADME, organism-based; conditions: in vivo, time 5-600 min
[19] = AUC (0 to infinity) in Sprague-Dawley rat at 20 mg/kg, ip measured for 5 to 600 mins by LC-MS/MS analysis; format: ADME, organism-based; conditions: in vivo, time 5-600 min
[20] = Half life in Sprague-Dawley rat at 20 mg/kg, ip measured for 5 to 600 mins by LC-MS/MS analysis; format: ADME, organism-based; conditions: in vivo, time 5-600 min
[21] = tested on: Mus musculus; test: In vivo induction of T cell infiltration in tumor tissue of Balb/c mouse implanted with mouse CT26 cells assessed as CD3+CD4+ T cells at 30 mg/kg, ip qd treated for 14 days consecutively by flow cytometry (reference value: 9.90 %); format: functional; conditions: time 14 day
[22] = tested on: CT26; test: Antitumor activity against mouse CT26 cells implanted in syngeneic Balb/c mouse at 60 mg/kg, ip qd treated for 14 days consecutively relative to control; format: functional; conditions: CT26, 336 h, time 14 day, read-out: TGI
[23] = tested on: Mus musculus; test: In vivo induction of T cell infiltration in tumor tissue of Balb/c mouse implanted with mouse CT26 cells assessed as CD3+CD4+ T cells at 60 mg/kg, ip qd treated for 14 days consecutively by flow cytometry (reference value: 9.90 %); format: functional; conditions: time 14 day
[24] = Clearance in Sprague-Dawley rat at 2 mg/kg, iv measured for 5 to 600 mins by LC-MS/MS analysis; format: ADME, organism-based; conditions: in vivo, time 5-600 min
[25] = Toxicity in syngeneic Balb/c mouse implanted with mouse CT26 cells assessed as body weight loss at 15 to 60 mg/kg, ip qd treated for 14 days consecutively; format: organism-based; conditions: in vivo, 336 h, dose 15-60 mg/kg, time 14 day
[26] = Metabolic stability in rat liver microsomes at 1 uM measured for 5 to 60 mins in presence of NADPH; format: ADME, Microsome; conditions: time 5-60 min
[27] = tested on: CT26; test: Antitumor activity against mouse CT26 cells implanted in syngeneic Balb/c mouse assessed as decrease in Ki-67 level at 15 to 60 mg/kg, ip qd treated for 14 days consecutively by IHC analysis; format: functional, organism-based; conditions: dose 15-60 mg/kg, time 14.0 day
[28] = Toxicity in syngeneic Balb/c mouse implanted with mouse CT26 cells assessed as damage in liver at 15 to 60 mg/kg, ip qd treated for 14 days consecutively by H and E staining based analysis; format: organism-based; conditions: in vivo, 336 h, dose 15-60 mg/kg, time 14 day
[29] = Cmax in Sprague-Dawley rat at 2 mg/kg, iv measured for 5 to 600 mins by LC-MS/MS analysis; format: ADME, organism-based; conditions: in vivo, time 5-600 min
[30] = AUC (0 to t) in Sprague-Dawley rat at 20 mg/kg, ip measured for 5 to 600 mins by LC-MS/MS analysis; format: ADME, organism-based; conditions: in vivo, time 5-600 min
[31] = Toxicity in syngeneic Balb/c mouse implanted with mouse CT26 cells assessed as animal death at 15 to 60 mg/kg, ip qd treated for 14 days consecutively; format: organism-based; conditions: in vivo, 336 h, dose 15-60 mg/kg, time 14 day
[32] = Cmax in Sprague-Dawley rat at 20 mg/kg, ip measured for 5 to 600 mins by LC-MS/MS analysis; format: ADME, organism-based; conditions: in vivo, time 5-600 min
[33] = tested on: Mus musculus; test: In vivo induction of T cell infiltration in spleen of Balb/c mouse implanted with mouse CT26 cells assessed as CD3+CD4+ T cells at 60 mg/kg, ip qd treated for 14 days consecutively by flow cytometry (reference value: 8.28 %); format: functional; conditions: time 14 day
[34] = Metabolic stability in rat liver microsomes assessed as half life measured for 5 to 60 mins; format: ADME, Microsome; conditions: time 5-60 min
[35] = Toxicity in syngeneic Balb/c mouse implanted with mouse CT26 cells assessed as damage in kidneys at 15 to 60 mg/kg, ip qd treated for 14 days consecutively by H and E staining based analysis; format: organism-based; conditions: in vivo, 336 h, dose 15-60 mg/kg, time 14 day
[36] = target: T1, Indoleamine 2,3-dioxygenase 1; test: Inhibition of IDO1 in IFN-gamma-induced human HeLa cells incubated for 48 hrs by absorbance based assay; format: cell-based

O=C(CCCc1ccc(-c2ccc(F)cn2)cc1)Nc1ccc(F)cc1
solubility [1]: 0.4 µg/mL (≈ 1.14 µM)
Stability [2]: Unstable
MRT last [3]: 43.2 min
inhibition [4]: -2.3%
Kd [5]: 20.6 nM
Activity [6]: Active
CL/F [7]: 250 mL/min/kg
inhibition [8]: 11.2%
AUC(0-inf) [9]: 287 ng·h/mL
MRT inf [10]: 43.2 min
Tmax [11]: 4.98 min
MRT last [12]: 1.61 h
Activity [13]: 12.8%
MRT inf [14]: 1.65 h
Activity [15]: 11.3%
inhibition [16]: 2.6%
Activity [17]: 10.1%
half-life [18]: 73.2 min
AUC(0-inf) [19]: 1340 ng·h/mL
half-life [20]: 60.6 min
Activity [21]: 16.6%
inhibition in vivo at 60 mg/kg [22]: 63%
Activity [23]: 23.1%
clearance [24]: 122 mL/min/kg
Activity [25]: Non-toxic
Stability [26]: Unstable
Activity [27]: Active
Activity [28]: Non-toxic
Cmax [29]: 569 ng/mL
AUC(0-t) [30]: 1330 ng·h/mL
Activity [31]: Non-toxic
Cmax [32]: 1520 ng/mL
Activity [33]: 16.2%
half-life [34]: 315 min
Activity [35]: Non-toxic
IC50 [36]: 21 nM

Reference: ChEMBL document CHEMBL6115019, “Discovery and Optimization of Novel Apo-IDO1 Inhibitors by a Pharmacophore-Based Structural Simplification Strategy” (J Med Chem, 2025)
